According to article PMC5920098, “Identification of the allosteric P2X7 receptor antagonist [^11C]SMW139 as a PET tracer of microglial activation” (Scientific Reports, 2018):
“Also recorded” adds a separate entry of the source.

Tests used:
human P2X7R = biological target: human P2X7R; design: method as in PMID 28841278; details: cited from earlier work
hP2X7R = biological target: T1, hP2X7R (Homo sapiens, UniProt Q99572); assay: PET imaging in rats locally overexpressing hP2X7R in right striatum; format: in vivo, rat; details: 30 mg·kg^−1 s.c., 45 min prior to tracer injection
T1 construct: 3xFLAG (3flag); expressed in transfected cells; host or cells: rat striatum (female Wistar rats), transduced in vivo with the AAV vector rAAV_3flag-hP2X7R
T1 sequence (Q99572 1-595): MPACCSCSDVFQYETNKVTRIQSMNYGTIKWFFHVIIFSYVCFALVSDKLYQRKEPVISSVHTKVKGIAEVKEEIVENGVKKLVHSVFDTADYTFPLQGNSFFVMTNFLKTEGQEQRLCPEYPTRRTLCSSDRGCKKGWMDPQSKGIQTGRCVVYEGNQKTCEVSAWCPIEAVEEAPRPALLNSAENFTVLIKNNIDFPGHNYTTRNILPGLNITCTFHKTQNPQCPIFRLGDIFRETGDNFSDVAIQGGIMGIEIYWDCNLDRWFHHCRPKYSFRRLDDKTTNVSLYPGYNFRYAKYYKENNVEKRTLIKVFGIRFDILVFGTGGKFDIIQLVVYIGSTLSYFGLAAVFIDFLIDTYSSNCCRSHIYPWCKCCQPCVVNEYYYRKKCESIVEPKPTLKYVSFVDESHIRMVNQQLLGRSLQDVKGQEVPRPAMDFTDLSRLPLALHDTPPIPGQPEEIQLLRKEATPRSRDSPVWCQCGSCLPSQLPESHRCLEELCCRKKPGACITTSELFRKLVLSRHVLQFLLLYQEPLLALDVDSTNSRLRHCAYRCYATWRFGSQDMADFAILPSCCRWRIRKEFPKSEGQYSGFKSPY
Description: Uptake of [^11C]SMW139 was 1.5-fold higher in the right striatum compared with the contralateral striatum at 4–15 min p.i. (n = 3; Fig. 6A,B, and Supplementary Figure S5, 5 weeks after vector injection). […] (2.85 ± 0.69 vs. 2.30 ± 0.36 in contralateral striatum) throughout the remainder of the scanning time.
Female rats were injected with the hP2X7R expressing vector in the right striatum, and eGFP expressing vector in the left striatum, which is described in detail in the Supplementary Information. […] To confirm stable expression of hP2X7R during the time period in which PET scanning studies were conducted, autoradiography experiments were performed both prior to and following PET experiments. In a dedicated small animal PET scanner (nanoPET, Mediso Ltd.), 60 min dynamic PET scans were acquired immediately after intravenous administration of 16–20 MBq of [^11C]SMW139. […] 45 min prior to tracer injection. After data reconstruction (details in Supplementary Information), images were analysed using the freely available AMIDE software (version 0.9.2; http://amide.sourceforge.net). ROIs were drawn around ipsi- and contralateral striata. Results are expressed as standardised uptake values (SUVs) and error bars indicate standard deviation.
Stereotactic injection of viral vector […]
to a 10 µL Hamilton syringe. […]
dorsoventral -0.64 cm relative to bregma. […]
minutes before removing it slowly.
Rats were sacrificed for in
Dynamic PET imaging was performed using dedicated small animal NanoPET/CT and NanoPET/MR scanners (Mediso Ltd., Budapest, Hungary) which are equipped with identical PET components. […]
anaesthetised with 4% and 2% isoflurane in oxygen (1 L·min-1) for induction and maintenance, respectively. Rats were positioned on the scanner bed and their respiratory rate was monitored during the entire scan, and anaesthesia was adjusted whenever required. Dynamic PET scans were acquired immediately after intravenous (i.v.) administration of 16-20 MBq of [11C]SMW139 via the tail vein. For […]
hydroxypropyl)-β-cyclodextrin in water for injection 45 min prior to tracer injection. PET scans were acquired in list mode and rebinned into the following frame sequence: 4 × 5, 4 x 10, 2 x 30, 3x 60, 2 x 300, 1 x 600, 1 x 900 and 1 x 1200 s. Reconstruction was performed using a fully 3-dimensional reconstruction algorithm (Tera-TomoTM, Mediso Ltd.) with 4 iterations and 6 subsets, and an isotropic 0.4 mm voxel dimension. Images were analysed using the freely available AMIDE software (version 0.9.2; http://amide.sourceforge.net). 3D ellipsoid ROIs (dimensions x = 3.4 mm, y = 3.6 mm, z = 2.9 […]
mm) were drawn within ipsi- and contralateral striata. Results are expressed as standardised uptake values (SUVs) and error bars indicate standard deviation. SUV were calculated as follows, with cimg in MBq/mL, injected dose in MBq and bodyweight in kg:
An unpaired two-tailed t-test was used for statistical analysis of PET data, which was performed using […]
allowed to recover for 1 week after scanning. After 1 week of recovery following the final scan (12 weeks after stereotactic vector injection) animals were sacrificed, and brains were excised and stored […]
Extended single microdose toxicity study
A single microdose toxicity study according to EMEA guideline EMA/CPMP/ICH/286/1995 (December 2009) was performed in healthy Wistar rats at a 1000 times higher dose than the maximal dose […]
minimum specific activity of 18.5 GBq·µmol-1). Animals were allowed to acclimatise for 10 days, group-housed and in an enriched environment with food and water available ad libitum, and with a 12-hour light-dark cycle in a temperature controlled room.

P2X7R = biological target: T2, P2X7R (Homo sapiens, UniProt Q99572); assay: In vitro autoradiography on post mortem human brain tissue (AD patients and controls); format: binding; details: blocker 10 µM, AD patients and controls
T2 construct: Snap frozen human post-mortem; tissue The Netherlands Brain Bank; host or cells: post mortem human temporal cortex (AD patients and non-neurological controls)
T2 sequence (Q99572 1-595): T1 sequence (Q99572 1-595)

Structure (SMILES)	Ki (human P2X7R)	Effect of pre-treatment on [^11C]SMW139 uptake/binding in rAAV_3flag-hP2X7R striatum (hP2X7R)	Blocking of [^11C]SMW139 binding in post mortem human brain tissue (P2X7R)
COc1ccc(Cl)c(C(=O)NCC23CC4CC(CC(C4)C2)C3)c1 [compound 1]	9 nM		
COc1ccc(Cl)c(C(=O)NCC23CC4CC(F)(CC(F)(C4)C2)C3)c1 [compound 3]	23 nM		
O=C(NCC1(N2CCN(c3ccccc3)CC2)CCOCC1)c1cccnc1Sc1ccccc1 [JNJ-47965567, reference compound]		down to baseline levels; also recorded: significantly decreased	fully blocked; also recorded: virtually complete blocking
COc1ccc(Cl)c(C(=O)NCC23CC4CC(CC(F)(C4)C2)C3)c1 [compound 2]	22 nM		
